Values of other authors, collected in patent US20090306094A1 (Bristol-Myers Squibb Company, priority 2006, published 2009).
Counter-ions that a name gives are not always drawn. Like-named read-outs stand apart in the source and are kept apart here.

Experiments:
[1] = test system: imatinib-resistant BCR-ABL mutants; conditions: number of mutants / number tested
[2] = test system: imatinib-resistant BCR-ABL mutants
[3] = test system: cells expressing imatinib-resistant BCR-ABL kinases
[4] = test system: imatinib-resistant BCR-ABL mutants; remark: listed apart in the source
BCR-ABL = target: T1, BCR-ABL (Homo sapiens, UniProt P00519)
T1 construct: BCR (N-terminal part of breakpoint cluster region protein, P11274); the other entry of the earlier key: BCR (P11274, Breakpoint cluster region protein)
T1 sequence (P00519 242-493 limits assumed): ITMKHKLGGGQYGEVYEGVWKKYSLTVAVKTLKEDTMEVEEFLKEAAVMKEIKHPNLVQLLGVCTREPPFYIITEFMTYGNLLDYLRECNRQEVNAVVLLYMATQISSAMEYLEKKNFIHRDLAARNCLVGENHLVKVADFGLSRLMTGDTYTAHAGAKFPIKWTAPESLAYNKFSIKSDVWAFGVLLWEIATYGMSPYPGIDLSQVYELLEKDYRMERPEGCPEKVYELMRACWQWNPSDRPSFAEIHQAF

[5] = test system: BCR-ABL expressing leukemic cells
[6] = test system: Crkl phosphorylation in primary CML patient cells; conditions: correlated with dephosphorylation of BCR-ABL
[7] = test system: leukemic versus normal hematopoietic cells

Which results are given for `Cc1cn(-c2cc(NC(=O)c3ccc(C)c(Nc4nccc(-c5cccnc5)n4)c3)cc(C(F)(F)F)c2)cn1` [AMN107]?
IC50 (wild-type BCR-ABL): […]; imatinib-resistant BCR-ABL mutants against which significantly active [1]: 32/33

Which “inhibition of imatinib-resistant BCR-ABL mutants” value [2] does the source give for `CP(C)(=O)c1ccc(Nc2nc(C3CCCC3)nc3c2ncn3CCc2cccc(O)c2)cc1` [AP23464] here?
The value was “inhibit imatinib-resistant BCR-ABL mutants”.

Which “growth and survival of cells” value [3] does the source give for `COCCNCCOc1ccc(-n2cc(-c3cccc(OC)c3)c3c(N)ncnc32)cc1` [CGP76030] here?
The value was “inhibit the growth and survival”.

Which “inhibition of imatinib-resistant BCR-ABL mutants” value [4] does the source give for `Cc1ccc(NC(=O)c2ccc(CN3CC[C@H](N(C)C)C3)c(C(F)(F)F)c2)cc1Nc1nccc(-c2cncnc2)n1` [NS-187] here?
Its value is “inhibit imatinib-resistant BCR-ABL mutants”.

With `Cc1cc(Nc2ncc3cc(-c4c(Cl)cccc4Cl)c(=O)n(C)c3n2)ccc1F` [PD180970] as the compound, how does the “inhibition of BCR-ABL” value (BCR-ABL) read?
Its value is “inhibit BCR-ABL”.

And the apoptosis [5]?
Its apoptosis is “induce apoptosis”.

Which antiproliferative activity (CML cell) does the source give for `COc1cc(Nc2c(C#N)cnc3cc(OCCCN4CCN(C)CC4)c(OC)cc23)c(Cl)cc1Cl` [SKI-606] here?
Its antiproliferative activity is “potent antiproliferative activity”.

With `Cc1ccc(NC(=O)c2ccc(CN3CCN(C)CC3)cc2)cc1Nc1nccc(-c2cccnc2)n1` [imatinib, imatinib mesylate] as the compound, how does the Crkl phosphorylation [6] read?
The Crkl phosphorylation was “inhibited in a dose-dependent manner”.

What about the “estimated 2-year incidence of resistance” value (CML patients; blastic phase) of the same compound?
Its value is 80%.

And the “estimated 2-year incidence of resistance” value (CML patients; chronic phase post-interferon-α failure)?
Its value is 10%.

And the “selectivity for leukemic versus normal hematopoietic cells” value [7]?
Its value is “highly selective”.
